This assay concerns Human umbilical vein endothelial cells (HUVECs). The assay can be described thus: Comparison of LA-419 and ISDN: NO and ONOO− release from HUVECs measured with tandem electrochemical nanosensors (Example 1). The conditions noted are these: for NO release (mean ± S.D.) / ONOO− release (mean ± S.D.): 500 nM, 12 hours, then CaI (1.0 μM); for decrease in NO release / increase in levels of ONOO− / decrease in the NO/ONOO− ratio: pretreatment 12 h. The class given is cell-based. The method, then: Human umbilical vein endothelial cells (HUVECs) were isolated into primary cultures and purchased as proliferating cells from Clonetics (San Diego, Calif.). All cell culture donors were healthy, with no pregnancy or prenatal complications. The cultured cells were incubated in 95% air/5% CO2 at 37° C. and passage by an enzymatic (trypsin) procedure. The confluent cells (4 to 5×10^5 cells per 35-mm dish) were placed with minimum essential medium containing 3 mM L-arginine and 0.1 mM BH4 [(6R)-5,6,7,8-tetrahydrobiopterin]. Before the experiments, the cells (from second or third passage) were rinsed twice with Tyrode-HEPES buffer with 1.8 mM CaCl2. ISDN was obtained from Sigma-Aldrich.
Concurrent measurements of NO and ONOO^− were carried out with tandem electrochemical nanosensors combined into one working unit with a total diameter of 200-500 nm (FIG. 1). Their design was based on previously developed and well-characterized chemically modified carbon-fiber technology (Malinski and Taha, 1992; Lvovich and Scheeline, 1997). Each of the nanosensors was made by depositing a sensing material on the tip of a carbon fiber (length 4-5 μm, diameter 0.2-0.5 μm). The fibers were sealed with nonconductive epoxy and electrically connected to copper wires with conductive silver epoxy. A conductive film of polymeric nickel (II) tetrakis(3-methoxy-4-hydroxyphenyl)porphyrin for the NO-sensor and polymeric film of Mn (III) [2.2]paracyclophanylporphyrin was used for the ONOO^−-sensor.
A module of NO/ONOO^− nanosensors (diameter 1-2 μm) with a platinum wire (0.1 mm) counter electrode and saturated calomel reference electrode (SCE) were applied. Differential pulse voltammetry (DPV) and amperometry were performed with a computer-based Gamry VFP600 multichannel potentiostat. DPV was used to measure the basal NO and ONOO^− concentrations, and amperometry was used to measure changes in NO and ONOO^− concentrations from its basal level with time. The DPV current at the peak potential characteristic for NO oxidation (0.65 V) and ONOO^− reduction (−0.45 V) was directly proportional to the local concentrations of these compounds in the immediate vicinity of the sensor. Linear calibration curves (current vs. concentration) were constructed for each sensor from 10 nM to 3 μM before and after measurements with aliquots of NO and ONOO^− standard solutions, respectively. The detection limit of the sensors was 1.0 nM.
The quantification of each analyte (concentration in nM) was performed using a maximum current from amperograms and standard calibration curves. A reproducibility of measurements with nanosensors is relatively high (between 5-12%). […] The sensors were slowly raised 5±2 μm from the surface of a single endothelial cell. The eNOS agonist, calcium ionophore A23187 (CaI) as well as the different drugs were then added to the surrounding media at the cell surface with a nanoinjector that was also positioned by a computer controlled-micromanipulator.
The HUVEC preparation is stable over the course of these experiments with the cells remaining viable in culture for >24 hours. Under non-stimulating conditions, basal levels of NO release are very low (<30 nM). Measurement of NO release as a function of treatment was conducted in individual endothelial cells. Multiple measurements of NO release can be conducted on single cells following a brief refractory period. For robust statistical analysis, separate cells were used for each concentration and type of drug used in these analyses.

Setting [1] is: HUVECs from Non-Hispanic Whites.

The text below walks through data of patent publication US20130131161A1, “METHODS AND COMPOSITIONS FOR CARDIOVASCULAR DISEASES AND CONDITIONS” (priority 2009, published 2013).

For `O=[N+]([O-])O[C@H]1CO[C@H]2[C@@H]1OC[C@H]2O[N+](=O)[O-]` [ISDN, isosorbide dinitrate], the “NO release (mean ± S.D.)” value is 218 ± 16 nM (HUVECs from African Americans) and 343 ± 11 nM under setting [1]. For the same compound, the “ONOO− release (mean ± S.D.)” value reads like this: (HUVECs from African Americans) 552 ± 11 nM; under setting [1], 323 ± 9 nM. For the same compound, the “decrease in NO release” value amounted to 12% (HUVECs from African Americans) and 11% (HUVECs from non-Hispanic whites). The “increase in levels of ONOO−” value runs as follows: (HUVECs from African Americans) 18%; (HUVECs from whites) 16%. In addition, the “decrease in the NO/ONOO− ratio” value was 25% (HUVECs from African Americans, p<0.05) and 23% (HUVECs from non-Hispanic whites, p<0.01).
